# Source: patent US20220354834A1, “METHODS AND MATERIALS FOR TREATING NEUROTOXICITY” (Cavion, Inc., priority 2019, published 2022)
# Experiments:
# [1] = tested on: human MMCs (RPMI 8226, MM.1S, U266B1); test: In vitro cytotoxicity and combination (BTZ and CX-8998) interference study, SRB assay in the 3 MCLs; assay type: cell-based; conditions: 72 hours
# Protocol: (§1) Cells were plated in 96-well plates (Eppendorf, Milano, Italy) at 10000 cells/well. […] After incubation, BTZ was diluted in culture medium at dose range for testing. Cells were fixed with trichloroacetic acid for 1 hour. Cells were stained with a solution of SRB in 1% acetic acid for 15 minutes. Unbound dye was removed by 5 washes with 1% acetic acid. Bound dye was dissolved with a solution of Tris (hydroxymethyl) aminomethane base and absorbance of content was measured at […]. Growth inhibition was expressed as percentage of DMSO control absorbance of cells and corrected for absorbance before addition of drug.
# Differences in percent cell survival between each drug or drug combination and control were analyzed by non-linear least squares with statistical significance at p<0.05.
# [2] = tested on: caudal nerves (BTZ-induced CIPN); test: CIPN-reversal study: caudal nerve conduction velocity; assay type: in vivo, Wistar rat
# Protocol: (§2) Wistar female rats (n=52) (Envigo, Correzzano, Italy) at 10-11 weeks of age were utilized. The study was divided into 2 phases of 4 weeks each. […] Body weight was measured periodically during phase 1 from baseline (day 1) to day 28. At baseline and conclusion of phase 1 (day 28), nerve conduction velocity (NCV) was performed on caudal and sciatic nerves and Dynamic Aesthesiometer Test (DAT) measured mechanical threshold (MT) of the hind paw. […] Body weight was measured periodically from baseline (day 28) to day 56 (termination). NCV and MT were measured in all 4 groups at baseline and on day 35 and 56. […] At termination, sciatic nerves were obtained for β-tubulin polymerization and skin samples were procured for intraepidermal nerve fiber (IENF) density and histopathology.
# (§3) NCV (meters/second) was obtained from caudal and sciatic nerves with an electromyography tool (Myto 2, ABN Neuro, Firenze, Italy). Caudal NCV was measured by placement of recording needle electrodes distally in the tail with stimulating needle electrodes 5 cm and 10 cm proximal to recording point. Peak latencies of potentials recorded at the 2 sites after nerve stimulation were determined and NCV was calculated. Sciatic NCV was determined by placement of needle recording electrodes near ankle bone and stimulating electrodes close to thigh. Peak latencies were recorded similar to caudal nerve and NCV was calculated. NCV was performed under standard conditions in a temperature-controlled facility (22±2° C.) and rats were under isoflurane anesthesia with monitoring of vital signs.
# MM.1S cells = test: In vitro BTZ cytotoxicity study (SRB assay); assay type: cell-based; conditions: Homo sapiens, MM1.S, 72 hours, read-out: IC50 of % cell survival
# Protocol: (§4) MM.1S and U266B1 cells were obtained from the American Type Culture Collection (San Giovanni, Italy). All cell lines were maintained in floating culture with RPMI medium that contained 2 mM L-glutamine supplemented with 10% FBS, penicillin and streptomycin. MM.1S cell medium was supplemented with 1.5 g/L sodium bicarbonate, 10 mM HEPES and 1 mM sodium pyruvate. Cells were grown in 75 cm^2 culture flasks for floating cells (Corning Inc. Corning, N.Y., USA) at 37° C. in 5% CO2 and 95% air.
# as §1
# U266B1 cells = test: In vitro BTZ cytotoxicity study (SRB assay); assay type: cell-based; conditions: Homo sapiens, 72 hours, read-out: IC50 of % cell survival
# Protocol: as §4, §1
# proteasome = test: Proteasome inhibition assay in PBMCs of treated rats; assay type: in vivo, rat
# Protocol: as §2
# [3] = tested on: sciatic nerves (BTZ-induced CIPN); test: CIPN-reversal study: sciatic nerve conduction velocity; assay type: in vivo, Wistar rat
# Protocol: as §2, §3
# RPMI 8226 cells = test: In vitro BTZ cytotoxicity study (SRB assay); assay type: cell-based; conditions: Homo sapiens, 72 hours, read-out: IC50 of % cell survival
# [4] = BTZ vs BTZ+ CX-8998 3 mg/kg, P > 0.05 ns
# [5] = BTZ vs BTZ+ CX-8998 10 mg/kg, P > 0.05 ns
# [6] = BTZ vs BTZ+ CX-8998 30 mg/kg, P > 0.05 ns
# [7] = BTZ+ CX-8998 3 mg/kg vs BTZ+ CX-8998 10 mg/kg, P > 0.05 ns
# [8] = BTZ+ CX-8998 3 mg/kg vs BTZ+ CX-8998 30 mg/kg, P > 0.05 ns
# [9] = BTZ+ CX-8998 10 mg/kg vs BTZ+ CX-8998 30 mg/kg, P > 0.05 ns
# [10] = CTRL vs BTZ+ CX-8998 3 mg/kg, P > 0.05 ns
# [11] = CTRL vs BTZ+ CX-8998 10 mg/kg, P > 0.05 ns
# [12] = CTRL vs BTZ+ CX-8998 30 mg/kg, P > 0.05 ns
smiles,measurement,setting,value
"CC(C)C[C@H](NC(=O)[C@H](Cc1ccccc1)NC(=O)c1cnccn1)B(O)O [BTZ, bortezomib, reference compound]",inhibition of cell growth (cytotoxicity),"[1]; BTZ 0.05-250 nM, 3 MCLs",concentration-dependent inhibition of cell growth
same,percent cell survival,"[1]; BTZ alone at IC50 (6, 4, 2.5 nM) vs DMSO control, p<0.001",significantly reduced
same,caudal NCV,"[2]; BTZ vs control at weeks 4, 5 and 8 (p<0.01, p<0.05, p<0.001)",significantly reduced
same,"NCV OF CAUDAL NERVE (8 weeks), Difference in rank sum (Dunn's Multiple Comparison Test)","[2]; CTRL vs BTZ, P < 0.001 ***",37.00
same,"NCV OF CAUDAL NERVE (5 weeks), Difference in rank sum (Dunn's Multiple Comparison Test)","[2]; CTRL vs BTZ, P < 0.05 *",15.75
same,IC50,MM.1S cells,6 ± 0.5 nM
same,IC50,U266B1 cells,2.5 ± 0.6 nM
same,% proteasome activity in circulating PBMCs,"proteasome; BTZ, week 4 vs baseline, p<0.05",significant inhibition
same,proteasome activity,"proteasome; weeks 5 and 8, BTZ alone",similarly inhibited
same,sciatic NCV,[3]; BTZ vs control at week 5,numerically less than control but the difference was not statistically significant
same,sciatic NCV,"[3]; BTZ vs control at weeks 4 and 8 (p<0.01, p<0.05)",significantly reduced
same,"NCV OF SCIATIC NERVE (8 weeks), Difference in rank sum (Dunn's Multiple Comparison Test)","[3]; CTRL vs BTZ, P < 0.05 *",22.10
same,"NCV OF SCIATIC NERVE (5 weeks), Difference in rank sum (Dunn's Multiple Comparison Test)","[3]; CTRL vs BTZ, P > 0.05 ns",2.250
same,IC50,RPMI 8226 cells,4 ± 1.7 nM
"CC(C)c1ccc(CC(=O)N[C@H](C)c2ccc(OCC(F)(F)F)cn2)cc1 [CX-8998, (R)-2-(4-Isopropylphenyl)-N-(1-(5-(2,2,2-Trifluoroethoxy)pyridin-2-yl)ethyl)acetamide]","NCV OF CAUDAL NERVE (5 weeks), Difference in rank sum (Dunn's Multiple Comparison Test)",[2]; [4],−11.21
same,"NCV OF CAUDAL NERVE (8 weeks), Difference in rank sum (Dunn's Multiple Comparison Test)",[2]; [4],−11.55
same,"NCV OF CAUDAL NERVE (8 weeks), Difference in rank sum (Dunn's Multiple Comparison Test)","[2]; BTZ vs BTZ+ CX-8998 10 mg/kg, P < 0.01 **",−22.36
same,"NCV OF CAUDAL NERVE (5 weeks), Difference in rank sum (Dunn's Multiple Comparison Test)",[2]; [5],−4.625
same,"NCV OF CAUDAL NERVE (8 weeks), Difference in rank sum (Dunn's Multiple Comparison Test)","[2]; BTZ vs BTZ+ CX-8998 30 mg/kg, P < 0.001 ***",−30.42
same,"NCV OF CAUDAL NERVE (5 weeks), Difference in rank sum (Dunn's Multiple Comparison Test)",[2]; [6],−11.04
same,"NCV OF CAUDAL NERVE (5 weeks), Difference in rank sum (Dunn's Multiple Comparison Test)",[2]; [7],6.583
same,"NCV OF CAUDAL NERVE (8 weeks), Difference in rank sum (Dunn's Multiple Comparison Test)",[2]; [7],−10.82
same,"NCV OF CAUDAL NERVE (8 weeks), Difference in rank sum (Dunn's Multiple Comparison Test)","[2]; BTZ+ CX-8998 3 mg/kg vs BTZ+ CX-8998 30 mg/kg, P < 0.05 *",−18.87
same,"NCV OF CAUDAL NERVE (5 weeks), Difference in rank sum (Dunn's Multiple Comparison Test)",[2]; [8],0.1667
same,"NCV OF CAUDAL NERVE (5 weeks), Difference in rank sum (Dunn's Multiple Comparison Test)",[2]; [9],−6.417
same,"NCV OF CAUDAL NERVE (8 weeks), Difference in rank sum (Dunn's Multiple Comparison Test)",[2]; [9],−8.053
same,"NCV OF CAUDAL NERVE (8 weeks), Difference in rank sum (Dunn's Multiple Comparison Test)","[2]; CTRL vs BTZ+ CX-8998 3 mg/kg, P < 0.01 **",25.45
same,"NCV OF CAUDAL NERVE (5 weeks), Difference in rank sum (Dunn's Multiple Comparison Test)",[2]; [10],4.542
same,"NCV OF CAUDAL NERVE (5 weeks), Difference in rank sum (Dunn's Multiple Comparison Test)",[2]; [11],11.13
same,"NCV OF CAUDAL NERVE (8 weeks), Difference in rank sum (Dunn's Multiple Comparison Test)",[2]; [11],14.64
same,"NCV OF CAUDAL NERVE (5 weeks), Difference in rank sum (Dunn's Multiple Comparison Test)",[2]; [12],4.708
same,"NCV OF CAUDAL NERVE (8 weeks), Difference in rank sum (Dunn's Multiple Comparison Test)",[2]; [12],6.583
same,"NCV OF SCIATIC NERVE (5 weeks), Difference in rank sum (Dunn's Multiple Comparison Test)",[3]; [4],6.667
same,"NCV OF SCIATIC NERVE (8 weeks), Difference in rank sum (Dunn's Multiple Comparison Test)",[3]; [4],−10.12
same,"NCV OF SCIATIC NERVE (8 weeks), Difference in rank sum (Dunn's Multiple Comparison Test)","[3]; BTZ vs BTZ+ CX-8998 10 mg/kg, P < 0.05 *",−19.26
same,"NCV OF SCIATIC NERVE (5 weeks), Difference in rank sum (Dunn's Multiple Comparison Test)",[3]; [5],2.583
same,"NCV OF SCIATIC NERVE (8 weeks), Difference in rank sum (Dunn's Multiple Comparison Test)","[3]; BTZ vs BTZ+ CX-8998 30 mg/kg, P < 0.05 *",−19.77
same,"NCV OF SCIATIC NERVE (5 weeks), Difference in rank sum (Dunn's Multiple Comparison Test)",[3]; [6],5.250
same,"NCV OF SCIATIC NERVE (5 weeks), Difference in rank sum (Dunn's Multiple Comparison Test)",[3]; [7],−4.083
same,"NCV OF SCIATIC NERVE (8 weeks), Difference in rank sum (Dunn's Multiple Comparison Test)",[3]; [7],−9.136
same,"NCV OF SCIATIC NERVE (5 weeks), Difference in rank sum (Dunn's Multiple Comparison Test)",[3]; [8],−1.417
same,"NCV OF SCIATIC NERVE (8 weeks), Difference in rank sum (Dunn's Multiple Comparison Test)",[3]; [8],−9.652
same,"NCV OF SCIATIC NERVE (5 weeks), Difference in rank sum (Dunn's Multiple Comparison Test)",[3]; [9],2.667
same,"NCV OF SCIATIC NERVE (8 weeks), Difference in rank sum (Dunn's Multiple Comparison Test)",[3]; [9],−0.5152
same,"NCV OF SCIATIC NERVE (5 weeks), Difference in rank sum (Dunn's Multiple Comparison Test)",[3]; [10],8.917
same,"NCV OF SCIATIC NERVE (8 weeks), Difference in rank sum (Dunn's Multiple Comparison Test)",[3]; [10],11.98
same,"NCV OF SCIATIC NERVE (5 weeks), Difference in rank sum (Dunn's Multiple Comparison Test)",[3]; [11],4.833
same,"NCV OF SCIATIC NERVE (8 weeks), Difference in rank sum (Dunn's Multiple Comparison Test)",[3]; [11],2.848
same,"NCV OF SCIATIC NERVE (5 weeks), Difference in rank sum (Dunn's Multiple Comparison Test)",[3]; [12],7.500
same,"NCV OF SCIATIC NERVE (8 weeks), Difference in rank sum (Dunn's Multiple Comparison Test)",[3]; [12],2.333
